In patent publication US7662971B2, “Inhibitors of fatty acid amide hydrolase” (The Scripps Research Institute, priority 2002, dated 2010):

target: T1, FAAH (Rattus norvegicus, UniProt P97612); test: FAAH enzyme inhibition, breakdown of 14C-oleamide to oleic acid; assay type: biochemical; conditions: 5-(2-pyridyl)-substituted oxazole head group, FIG. 4
T1 construct: using a solubilized liver plasma membrane extract containing FAAH; from tissue; host or cells: liver plasma membrane extract (solubilized)
T1 sequence (P97612 1-579): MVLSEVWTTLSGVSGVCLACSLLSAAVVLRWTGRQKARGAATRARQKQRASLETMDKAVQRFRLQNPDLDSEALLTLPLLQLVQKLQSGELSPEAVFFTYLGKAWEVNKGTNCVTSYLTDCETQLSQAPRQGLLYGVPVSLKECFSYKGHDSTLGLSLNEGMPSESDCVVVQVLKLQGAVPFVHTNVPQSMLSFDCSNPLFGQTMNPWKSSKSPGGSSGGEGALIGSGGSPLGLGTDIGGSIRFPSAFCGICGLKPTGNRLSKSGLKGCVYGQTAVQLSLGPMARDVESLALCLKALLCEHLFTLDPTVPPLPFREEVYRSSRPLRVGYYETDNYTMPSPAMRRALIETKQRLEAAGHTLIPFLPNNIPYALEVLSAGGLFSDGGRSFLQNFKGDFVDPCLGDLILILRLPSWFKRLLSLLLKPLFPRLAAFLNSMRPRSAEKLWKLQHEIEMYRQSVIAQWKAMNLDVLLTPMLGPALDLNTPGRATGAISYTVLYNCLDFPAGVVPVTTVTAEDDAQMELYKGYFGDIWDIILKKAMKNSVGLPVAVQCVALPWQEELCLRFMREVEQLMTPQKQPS
Method: All enzyme assays were performed at 20-23° C. using a solubilized liver plasma membrane extract containing FAAH in a reaction buffer of 125 mM Tris, 1 mM EDTA, 0.2% glycerol, 0.02% Triton X-100, 0.4 mM HEPES, pH 9.0 buffer (M. P. Patricelli, et al., (1998) Bioorg. Med. Chem. Lett. 8, 613-618; and J. E. Patterson, et al., (1996) J. Am. Chem. Soc. 118, 5938-5945). The initial rates of hydrolysis were monitored by following the breakdown of ^14C-oleamide to oleic acid as previously described (B. F. Cravatt, et al., (1995) Science 268, 1506-1509; and M. P. Patricelli, et al., (1998) Bioorg. Med. Chem. Lett. 8, 613-618). The inhibition was reversible, non time-dependent and linear least squares fits were used for all reaction progress curves and R^2 values were consistently >0.97. IC50 values were determined from the inhibition observed at 3-5 different inhibitor concentrations (from three or more trials at each inhibitor concentration) using the formula IC50=[I]/[(K0/Ki)−1], where K0 is the control reaction rate without inhibitor and Ki is the rate with inhibitor at concentration [I] (K. Conde-Frieboes, et al., (1996) J. Am. Chem. Soc. 118, 5519-5525). Ki values were determined by the Dixon method (x-intercepts of weighted linear fits of [I] versus 1/rate plots at constant substrate concentration, which were converted to Ki values using the formula Ki=−xint/[1+[S]/Km]).

difference in Ki between compounds 185 and 200	SMILES
factor of two	CCCCCCCCCCCC(=O)c1ncc(-c2ccccn2)o1 [Compound 185, 1-(5-(Pyridin-2-yl)oxazol-2-yl)dodecan-1-one]
factor of two	O=C(CCCCCCc1ccccc1)c1ncc(-c2ccccn2)o1 [Compound 200, 1-Oxo-1-[5-(2-pyridyl)oxazol-2-yl]-7-phenylheptane]

tested on: mice; test: tail withdrawal / tail immersion test (thermal pain); assay type: in vivo; conditions: 10 mg/kg, i.p., 60 minutes following injection, p<0.001
Method: (§1) FIG. 11 illustrates a bar graph showing the reduced thermal pain responses 60 minutes following the injection of OL-135 (10 mg/kg, i.p.). This test is the tail withdrawal test and there is no effect with the vehicle while there is marked delay after administration of the OL-135. [p<0.001; N=12 mice per group; results shown as means ±S.E.]
(§2) The mice received an i.p. injection of vehicle or SR 141716A (3 mg/kg); 10 minutes later all subjects were given OL-135 (10 mg/kg, i.p.) and then evaluated in the tail immersion test one hour after the second injection. (p<0.001 for OL-135-treated mice that were pretreated with vehicle versus either their pre-injection baseline latencies or OL-135 treated mice that were pretreated with SR 141716A.) Results are shown as means ±S. E. N=6 mice/group.

SMILES	thermal pain response, tail withdrawal test
O=C(CCCCCCc1ccccc1)c1ncc(-c2ccccn2)o1 [OL-135]	marked delay

same assay, conditions: SR 141716A 3 mg/kg i.p. 10 minutes before OL-135 10 mg/kg i.p., one hour after second injection

SMILES	effect on OL-135 analgesia, tail immersion test
Cc1c(C(=O)NN2CCCCC2)nn(-c2ccc(Cl)cc2Cl)c1-c1ccc(Cl)cc1 [SR 141716A, reference compound]	blocking the analgesic effects of OL-135

tested on: mice; test: hot plate test (thermal pain); assay type: in vivo; conditions: 10 mg/kg, i.p., 60 minutes following injection, p<0.01
Method: as §1, with “12” for “11”, “hot plate” for “tail withdrawal”, “and” for “while”, “some” for “marked”, “[p<0.01;” for “[p<0.001;”
as §2, with “hot plate” for “tail immersion”, “[p<0.001” for “(p<0.001”, “141716A.” for “141716A.)”, “mice/group.]” for “mice/group.”

SMILES	thermal pain response, hot plate test
O=C(CCCCCCc1ccccc1)c1ncc(-c2ccccn2)o1 [OL-135]	some delay

same assay, conditions: SR 141716A 3 mg/kg i.p. 10 minutes before OL-135 10 mg/kg i.p., one hour after second injection

SMILES	effect on OL-135 analgesia, hot plate test
Cc1c(C(=O)NN2CCCCC2)nn(-c2ccc(Cl)cc2Cl)c1-c1ccc(Cl)cc1 [SR 141716A, reference compound]	blocking the analgesic effects of OL-135

tested on: not given; test: not given; conditions: not given

SMILES	melting point [°C]
CCCCCCCCCCCCCCCCCC(=O)c1ncc(-c2ccccn2)o1 [Compound 182, 1-(5-(Pyridin-2-yl)oxazol-2-yl)octadecan-1-one]	86 to 87
CCCCCCCCCCCCCCCC(=O)c1ncc(-c2ccccn2)o1 [Compound 183, 1-(5-(Pyridin-2-yl)oxazol-2-yl)hexadecan-1-one]	78 to 80
CCCCCCCCCCCCCC(=O)c1ncc(-c2ccccn2)o1 [Compound 184, 1-(5-(Pyridin-2-yl)oxazol-2-yl)tetradecan-1-one]	79 to 80
O=C(CCCCc1ccccc1)c1ncc(-c2ccccn2)o1 [Compound 198, 1-Oxo-1-[5-(2-pyridyl)oxazol-2-yl]-5-phenylpentane]	49 to 51
O=C(CCCCCc1ccccc1)c1ncc(-c2ccccn2)o1 [Compound 199, 1-Oxo-1-[5-(2-pyridyl)oxazol-2-yl]-6-phenylhexane]	43.5 to 45.5
O=C(CCCCCCCc1ccccc1)c1ncc(-c2ccccn2)o1 [Compound 201, 1-Oxo-1-[5-(2-pyridyl)oxazol-2-yl]-8-phenyloctane]	72 to 73
C=CCCCCCCCC(=O)c1ncc(-c2ccccn2)o1 [Compound 203, 1-Oxo-1-[5-(2-pyridyl)oxazol-2-yl]-9-decene]	55 to 57
CCCCCCCCC#CCCCCCCCC(=O)c1ncc(-c2ccccn2)o1 [Compound 205, 1-Oxo-1-[5-(2-pyridyl)oxazol-2-yl]-9-octadecyne]	41

Results, then the molecule that gave them:

melting point [°C]	SMILES
73 to 74	CCCCCCCCCCCC(=O)c1ncc(-c2ccccn2)o1 [Compound 185, 1-(5-(Pyridin-2-yl)oxazol-2-yl)dodecan-1-one]
56 to 57	CCCCCCCCCC(=O)c1ncc(-c2ccccn2)o1 [Compound 187, 1-(5-(Pyridin-2-yl)oxazol-2-yl)decan-1-one]
56 to 57	CCCCCCCCC(=O)c1ncc(-c2ccccn2)o1 [Compound 188, 1-(5-(Pyridin-2-yl)oxazol-2-yl)nonan-1-one]
56	CCCCCCCC(=O)c1ncc(-c2ccccn2)o1 [Compound 189, 1-(5-(Pyridin-2-yl)oxazol-2-yl)octan-1-one]
52	CCCCCCC(=O)c1ncc(-c2ccccn2)o1 [Compound 190, 1-(5-(Pyridin-2-yl)oxazol-2-yl)heptan-1-one]
49 to 50.5	CCCCCC(=O)c1ncc(-c2ccccn2)o1 [Compound 191, 1-(5-(Pyridin-2-yl)oxazol-2-yl)hexan-1-one]
36 to 37	CCCCC(=O)c1ncc(-c2ccccn2)o1 [Compound 192, 1-(5-(pyridin-2-yl)oxazol-2-yl)pentan-1-one]
54 to 55	CCCC(=O)c1ncc(-c2ccccn2)o1 [Compound 193, 1-[5-(Pyridin-2-yl)oxazol-2-yl]butan-1-one]
65 to 67	CCC(=O)c1ncc(-c2ccccn2)o1 [Compound 194, 1-[5-(Pyridin-2-yl)oxazol-2-yl]propan-1-one]
64.5 to 65.5	C#CCCCCCCCC(=O)c1ncc(-c2ccccn2)o1 [Compound 204, 1-Oxo-1-[5-(2-pyridyl)oxazol-2-yl]-9-decyne]
